For test [1], the target named is T1, Serotonin (5HT) reuptake (Rattus norvegicus, UniProt P31652).
T1 construct: synaptosomes are freshly isolated from areas of rat brain; from tissue; host or cells: rat brain synaptosomes (P2 fraction)
Put plainly: Serotonin (5HT) reuptake inhibition in rat brain synaptosomes (P2 fraction). It is filed as biochemical. The settings on record: for inhibition at 10 µM: read-out: Serotonin reuptake, % inhibition [10 μM]. The text has this:
(§1) Noradrenaline (NA) and Serotonin (5HT) Reuptake Inhibition
(§2) In order to be able to carry out these studies in vitro, synaptosomes are freshly isolated from areas of rat brain. A so-called “P2” fraction prepared by the method of Gray and Whittaker (E. G. Gray and V. P. Whittaker (1962) J. Anat. 76, 79-88) is used in each case. For the NA uptake, these vesicular particles are isolated from the hypothalamus of male rat brains.
(§3) A detailed description of the method will be found in the literature (M. Ch. Frink, H. H. Hennies, W. Englberger, M. Haurand and B. Wilffert (1996) Arzneim.-Forsch./Drug Res. 46 (III), 11, 1029-1036).

The target of test [2] is T2, Noradrenaline (NA) reuptake (Rattus norvegicus, UniProt Q63380).
T2 construct: synaptosomes are freshly isolated from areas of rat brain; from tissue; host or cells: rat hypothalamus synaptosomes (P2 fraction)
T2 sequence (Q63380 1-617): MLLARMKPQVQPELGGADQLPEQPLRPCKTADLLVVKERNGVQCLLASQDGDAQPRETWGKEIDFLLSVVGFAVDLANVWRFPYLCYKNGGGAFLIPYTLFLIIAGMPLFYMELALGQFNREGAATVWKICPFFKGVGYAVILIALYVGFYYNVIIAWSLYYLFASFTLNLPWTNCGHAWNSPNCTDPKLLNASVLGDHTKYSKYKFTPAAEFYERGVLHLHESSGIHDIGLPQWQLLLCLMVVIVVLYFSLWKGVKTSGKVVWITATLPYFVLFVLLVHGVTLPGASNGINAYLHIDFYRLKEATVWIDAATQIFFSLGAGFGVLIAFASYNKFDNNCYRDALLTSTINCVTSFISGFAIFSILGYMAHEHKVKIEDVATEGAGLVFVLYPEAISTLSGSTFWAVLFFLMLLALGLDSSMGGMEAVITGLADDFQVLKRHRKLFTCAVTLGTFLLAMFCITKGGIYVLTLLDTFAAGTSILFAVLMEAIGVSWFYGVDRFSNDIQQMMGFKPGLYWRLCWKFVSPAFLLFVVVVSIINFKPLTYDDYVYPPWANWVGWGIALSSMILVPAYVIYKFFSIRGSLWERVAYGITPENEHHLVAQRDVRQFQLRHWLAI
Put plainly: Noradrenaline (NA) reuptake inhibition in rat brain synaptosomes (hypothalamus, P2 fraction). Format: biochemical.
Excerpt: as §1, §2, §3

Test [3] concerns the target human μ-opiate receptor (Homo sapiens, UniProt P35372). As to the kind of experiment: Affinity for the human μ-opiate receptor ([3H]-naloxone displacement, SPA, CHO-K1 membrane preparation). It is filed as binding. Particulars: for inhibition at 1 µM: read-out: μ-Opioid receptor, % inhibition [1 μM]; for Ki: read-out: μ-Opioid receptor, Ki.
[4] abbreviates: read-out: NA reuptake, % inhibition [10 μM].
[5] abbreviates: 1 μM test substance, inhibition of specific [3H]-naloxone binding.
[6] abbreviates: read-out: Na reuptake, % inhibition [10 μM].

Counter-ions that a name gives are not always drawn. Like-named read-outs stand apart in the source and are kept apart here.

Chain of human μ-opiate receptor (P35372 whole entry): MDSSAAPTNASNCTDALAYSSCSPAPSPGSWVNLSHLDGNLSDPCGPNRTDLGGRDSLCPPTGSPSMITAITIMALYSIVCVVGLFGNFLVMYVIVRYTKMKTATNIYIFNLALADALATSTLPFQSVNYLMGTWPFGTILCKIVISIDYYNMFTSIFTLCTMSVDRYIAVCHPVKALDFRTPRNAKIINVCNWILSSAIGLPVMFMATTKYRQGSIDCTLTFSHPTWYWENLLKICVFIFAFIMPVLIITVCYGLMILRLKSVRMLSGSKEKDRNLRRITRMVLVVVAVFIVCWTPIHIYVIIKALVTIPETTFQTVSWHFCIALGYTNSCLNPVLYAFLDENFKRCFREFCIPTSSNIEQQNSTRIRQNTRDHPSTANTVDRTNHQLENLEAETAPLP
T1 sequence (P31652 whole entry): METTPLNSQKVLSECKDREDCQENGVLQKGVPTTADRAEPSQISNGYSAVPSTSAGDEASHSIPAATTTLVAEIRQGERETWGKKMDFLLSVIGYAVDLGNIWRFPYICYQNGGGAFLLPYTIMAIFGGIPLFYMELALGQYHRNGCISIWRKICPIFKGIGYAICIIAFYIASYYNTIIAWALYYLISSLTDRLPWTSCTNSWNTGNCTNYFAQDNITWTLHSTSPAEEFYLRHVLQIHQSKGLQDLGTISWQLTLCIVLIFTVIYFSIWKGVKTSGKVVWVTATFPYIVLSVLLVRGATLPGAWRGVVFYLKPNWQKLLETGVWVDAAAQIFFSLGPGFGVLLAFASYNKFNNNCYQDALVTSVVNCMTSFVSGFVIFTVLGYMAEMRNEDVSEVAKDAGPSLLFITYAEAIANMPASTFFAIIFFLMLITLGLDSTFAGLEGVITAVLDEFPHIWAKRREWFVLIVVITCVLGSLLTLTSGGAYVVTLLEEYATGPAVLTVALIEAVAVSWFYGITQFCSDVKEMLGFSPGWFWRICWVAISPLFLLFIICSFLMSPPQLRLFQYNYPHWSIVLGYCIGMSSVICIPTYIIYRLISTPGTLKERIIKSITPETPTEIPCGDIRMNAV

`CN(C)C(c1ccccc1)C1CCC(CCCO)CC1` (stereo not drawn) [compound 134, 3-[4-(dimethylamino-phenyl-methyl)-cyclohexyl]-propan-1-ol]: the inhibition at 10 µM in test [1] is 86%; in test [2] (setting [4]), 90%. For the same molecule, the inhibition at 1 µM in test [3] (setting [5]) was found to be 45%.
Take `CN(C)C(c1ccccc1)C1CCC(CCN)CC1` (stereo not drawn) [compound 48]: the “Serotonin reuptake, % inhibition [10 μM]” value in test [1] (10 μM, rat brain synaptosomes) is 95%. The “NA reuptake, % inhibition [10 μM]” value in test [2] (10 μM, rat brain synaptosomes (hypothalamus)) came to 100%. Besides, the “μ-Opioid receptor, % inhibition [1 μM]” value in test [3] (setting [5]) came out at 67%.
For the molecule `CN(C)C(c1cccc(F)c1)C1CCC(CCN)CC1` (stereo not drawn) [compound 54, 2-{4-[dimethylamino-(3-fluorophenyl)-methyl]-cyclohexyl}-ethylamine], the inhibition at 10 µM was found to be 94% in test [1] and 102% in test [2] (setting [4]). In test [3] (setting [5]), the inhibition at 1 µM amounted to 62%.
As to `CN(C)C(c1ccc(F)cc1)C1CCC(CCCO)CC1` (stereo not drawn) [compound 137, 3-{4-[dimethylamino-(4-fluorophenyl)-methyl]-cyclohexyl}-propan-1-ol], the values for the inhibition at 10 µM in test [1] and in test [2] (setting [4]) were 89% and 93%, respectively. In addition, the inhibition at 1 µM in test [3] (setting [5]) came out at 13%.
`CN(C)C(c1ccccc1)C1CCC(NS(=O)(=O)c2ccc(C(C)(C)C)cc2)CC1` (stereo not drawn) [compound 108, 4-tert-butyl-N-(4-((dimethylamino)(phenyl)methyl)cyclohexyl)benzene-sulfonamide hydrochloride]: the inhibition at 10 µM in test [1] and in test [2] (setting [4]) was 75% in each case. Further, in test [3] (1 μM, sulfonamides (Table 17)), the inhibition at 1 µM was determined as 92%. The Ki in test [3] (sulfonamides (Table 17)) stood at 22 nM.
Turning to `CN(C)C(c1cccs1)C1CCC(CN)CC1` (stereo not drawn) [compound 42, [(4-aminomethyl-cyclohexyl)-thiophen-2-yl-methyl]-dimethylamine], the inhibition at 10 µM is 86% in test [1] and 83% in test [2] (setting [4]). Also, in test [3] (setting [5]), the inhibition at 1 µM worked out at 80%. Also, in test [3] ([3H]-naloxone, human μ-opiate receptor membranes), the inhibition constant Ki is 240 nM.
Turning to `CN(C)C(c1ccccc1)C1CCC(NC(=O)Nc2ccc(Br)cc2)CC1` (stereo not drawn) [compound 81, 1-(4-bromophenyl)-3-(4-((dimethylamino)(phenyl)methyl)cyclohexyl)urea], the inhibition at 10 µM in test [1] and in test [2] (setting [4]) was 97% throughout. Besides, the inhibition at 1 µM in test [3] (setting [5]) came to 95%. Also, the Ki in test [3] is 33 nM.
As for `CCC(=O)N(CCCCc1ccccc1)C1CCC(C(c2ccccc2)N(C)C)CC1` (stereo not drawn) [compound 97, N-(4-((dimethylamino)(phenyl)methyl)cyclohexyl)-N-(4-phenylbutyl)propionamide hydrochloride], the values for the inhibitory constant (Ki) in test [1], in test [2] and in test [3] were 990 nM, 700 nM and 3.7 nM, respectively. The results for the inhibition at 10 µM in test [1] and in test [2] (setting [6]) were 76% and 94%, respectively. In addition, the inhibition at 1 µM in test [3] worked out at 97%.
Consider `CN(C)C(c1ccc(Cl)cc1)C1CCC(O)CC1` (stereo not drawn) [compound 114, 4-[(4-chlorophenyl)-dimethylamino-methyl]-cyclohexanol], for which the inhibition at 10 µM turned out to be 64% in test [1] and 93% in test [2] (setting [4]). Moreover, in test [3] (setting [5]), the inhibition at 1 µM amounted to 43%.
In the case of `CCOC(=O)CC1CCC(C(c2ccccc2)N(C)C)CC1` (stereo not drawn) [compound 124, [4-(dimethylamino-phenyl-methyl)-cyclohexyl]-acetic acid ethyl ester], the values for the inhibition constant (Ki) in test [1] and in test [3] were 97 nM and 79 nM, respectively. The inhibition at 10 µM in test [1] was 85%; in test [2] (setting [4]), 76%. In test [3] (setting [5]), the inhibition at 1 µM came out at 79%.
Take `CN(C)C(c1cccc(F)c1)C1CCC(CN)CC1` (stereo not drawn) [compound 36, [(4-aminomethyl-cyclohexyl)-(3-fluorophenyl)-methyl]-dimethylamine]: the inhibition constant (Ki) in test [1] is 96 nM; in test [2] it was 110 nM. Also, the inhibition at 10 µM in test [1] was 89%; in test [2] (setting [4]) it was 93%. Further, the inhibition at 1 µM in test [3] (setting [5]) came out at 68%.
With `CCOC(=O)CC1CCC(C(c2ccc(F)cc2)N(C)C)CC1` (stereo not drawn) [compound 127, {4-[dimethylamino-(4-fluorophenyl)-methyl]-cyclohexyl}-acetic acid ethyl ester], the inhibition at 10 µM is 90% in test [1] and 89% in test [2] (setting [4]). In addition, in test [3] (setting [5]), the inhibition at 1 µM came out at 34%.
As to `CN(C)C(c1ccccc1)C1CCC(CN)CC1` (stereo not drawn) [compound 30, [(4-aminomethyl-cyclohexyl)-phenyl-methyl]-dimethylamine], the inhibition at 10 µM in test [1] and in test [2] (setting [4]) was 89% in each case. Also, the inhibition at 1 µM in test [3] (setting [5]) stood at 94%. Moreover, in test [3], the Ki is 210 nM.
`CCC(CC)C(=O)N(c1ccccc1)C1CCC(C(c2ccccc2)N(C)C)CC1` (stereo not drawn) [compound 105, N-(4-((dimethylamino)(phenyl)methyl)cyclohexyl)-2-ethyl-N-phenylbutanamide hydrochloride]: the inhibition at 10 µM was found to be 85% in test [1] and 88% in test [2] (setting [6]). Moreover, the inhibition at 1 µM in test [3] is 100%. Further, the inhibitory constant (Ki) in test [3] turned out to be 20 nM.
In the case of `CN(C)C(c1ccc(Cl)cc1)C1CCC(N)CC1` (stereo not drawn) [compound 23, 4-[(4-chlorophenyl)-dimethylamino-methyl]-cyclohexylamine], the inhibition at 10 µM in test [1] was 64%; in test [2] (setting [4]), 97%. Besides, in test [3] (setting [5]), the inhibition at 1 µM was 58%.
On to `CN(C)C(c1ccccc1)C1CCC(NCCc2c[nH]c3ccccc23)CC1` (stereo not drawn) [compound 83, N-(2-(1H-indol-3-yl)ethyl)-4-((dimethylamino)(phenyl)methyl)-cyclohexanamine hydrochloride], for which the inhibition at 10 µM in test [1] was found to be 93%; in test [2] (setting [4]), 100%. The inhibition at 1 µM in test [3] (setting [5]) was 95%. Further, the Ki in test [3] worked out at 7 nM.
As to `COc1ccc(N(C(C)=O)C2CCC(C(c3ccccc3)N(C)C)CC2)cc1` (stereo not drawn) [compound 99, N-(4-((dimethylamino)(phenyl)methyl)cyclohexyl)-N-(4-methoxyphenyl)-acetamide hydrochloride], in test [1], the affinity, expressed as Ki, was 540 nM and the inhibition at 10 µM came to 83%. For the same molecule, the inhibition at 10 µM in test [2] (setting [6]) stood at 75%. Also, in test [3], the inhibition at 1 µM came out at 77% and the Ki turned out to be 470 nM.
On to `CN(C)C(c1cccs1)C1CCC(CCN)CC1` (stereo not drawn) [compound 69, 2-[4-(dimethylamino-thiophen-2-yl-methyl)-cyclohexyl]-ethylamine], for which the inhibition at 10 µM amounted to 83% in test [1] and 98% in test [2] (setting [4]). Moreover, in test [3] (setting [5]), the inhibition at 1 µM amounted to 61%.
On to `CN(C)C(c1ccc(Cl)cc1)C1CCC(CO)CC1` (stereo not drawn) [compound 120, {4-[(4-chlorophenyl)-dimethylamino-methyl]-cyclohexyl}-methanol], for which the inhibition at 10 µM in test [1] turned out to be 79%; in test [2] (setting [4]) it was 93%. Moreover, in test [3] (setting [5]), the inhibition at 1 µM was 51%.
`CN(C)C(c1ccccc1)C1CCC(N(Cc2ccccc2)C(=O)c2ccccc2)CC1` (stereo not drawn) [compound 104, N-benzyl-N-(4-((dimethylamino)(phenyl)methyl)cyclohexyl)benzamide hydrochloride]: the inhibitory constant (Ki) was determined as 440 nM in test [1], 320 nM in test [2] and 14 nM in test [3]. Further, the values for the inhibition at 10 µM in test [1] and in test [2] (setting [6]) were 90% and 92%, respectively. Moreover, the inhibition at 1 µM in test [3] was determined as 92%.
`CCOC(=O)CC1CCC(C(c2cccc(F)c2)N(C)C)CC1` (stereo not drawn) [compound 130, {4-[dimethylamino-(3-fluorophenyl)-methyl]-cyclohexyl}-acetic acid ethyl ester]: the inhibition constant Ki in test [1] amounted to 16 nM; in test [3], 230 nM. Further, the inhibition at 10 µM in test [1] turned out to be 93%; in test [2] (setting [4]), 82%. The inhibition at 1 µM in test [3] (setting [5]) is 82%.
`CN(C)C(c1ccccc1)C1CCC(NC(=O)Nc2cccc3ccccc23)CC1` (stereo not drawn) [compound 73, 1-(4-((dimethylamino)(phenyl)methyl)cyclohexyl)-3-(naphthalen-1-yl)urea]: the figures for the Ki in test [1], in test [2] and in test [3] were 61 nM, 180 nM and 46 nM, respectively. The inhibition at 10 µM in test [1] was determined as 90%; in test [2] (setting [4]), 94%. Besides, the inhibition at 1 µM in test [3] (setting [5]) came to 96%.
In the case of `CN(C)C(c1ccccc1)C1CCC(C=O)CC1` (stereo not drawn) [compound 28, 4-(Dimethylamino-phenyl-methyl)-cyclohexane-carbaldehyde], the inhibition at 10 µM came out at 85% in test [1] and 84% in test [2] (setting [4]). Moreover, in test [3] (setting [5]), the inhibition at 1 µM worked out at 69%.
With `CC(=O)N(Cc1ccccc1)C1CCC(C(c2ccccc2)N(C)C)CC1` (stereo not drawn) [compound 100, N-benzyl-N-(4-((dimethylamino)(phenyl)methyl)cyclohexyl)acetamide hydrochloride], the Ki in test [1] turned out to be 520 nM; in test [2], 320 nM; in test [3], 3.5 nM. In addition, the values for the inhibition at 10 µM in test [1] and in test [2] (setting [6]) were 86% and 91%, respectively. Further, the inhibition at 1 µM in test [3] is 100%.
Turning to `CN(C)C(c1ccccc1)C1CCC(NC(=O)Nc2cccc(Br)c2)CC1` (stereo not drawn) [compound 77, 1-(3-bromophenyl)-3-(4-((dimethylamino)(phenyl)methyl)cyclohexyl)urea hydrochloride], the inhibition at 10 µM turned out to be 84% in test [1] and 93% in test [2] (setting [4]). Moreover, the inhibition at 1 µM in test [3] (setting [5]) was found to be 88%. Besides, in test [3], the inhibition constant Ki stood at 78 nM.

As a reminder, the inhibition is the relative decrease from the control value, in per cent. In general, Ki refers to the equilibrium dissociation constant of an inhibitor or competing ligand from its target.

For the origin of these results see patent US8058475B2, “Substituted cyclohexylmethyl compounds” (Gruenenthal GmbH, priority 2005, dated 2011).
